Assays:
Format in all cases: in vivo
Details in all cases: treatment dosage 320 g/ha
chickweed [1] = assay: Test Example 3: weedkilling efficacy through soil treatment; N: chickweed
Method in brief: (§1)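 Crop and weed responses were judged three weeks after a uniform surface spray of the water-diluted emulsion at the given g/ha rate. Seeds sat beneath about 1.5 cm of sterilized diluvial soil, and boxes stood in a greenhouse at 25 to 30° C.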

oval-leafed pondweed [2] = assay: Test Example 1: weedkilling efficacy, preemergent weed treatment in the submerged state; C: oval-leafed pondweed
Method in brief: (§2)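 Visual scores against set criteria were taken 3 weeks after treatment. Compounds, as diluted emulsions at specified g/ha, went onto the water surface of 4 cm-flooded alluvial soil pots on the day weeds were sown and 2.5-leaf rice was transplanted; greenhouse held 25–30 °C.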

barnyard grass [3] = assay: Test Example 4: weedkilling efficacy by foliar treatment; F: barnyard grass
Method: (§3) Testing of Weedkilling Efficacy by Foliar Treatment
(§4) Sterilized diluvial soil was introduced into 21 cm long, 13 cm wide, 7 cm deep plastic boxes, and seeds of crabgrass, green foxtail, barnyard grass, wild oat, black-grass, Italian ryegrass, common wind-grass, Indian mallow, redroot pigweed, fig-leafed goosefoot, chickweed, catchweed, birds-eye speedwell, corn, soybean, rice, wheat, beet and rapeseed were each spot-sown, and covered with about 1.5 cm of soil, then the plants were grown in a greenhouse at 25 to 30° C.
(§5) After they had grown for 14 days, emulsions of compounds of the present invention prepared according to compounding example 2 were diluted with water to give the specified dosages, and applied uniformly onto the stem and leaf parts with a small sprayer. 3 weeks after the pesticide treatment the effect on each type of plant was investigated on the basis of the assessment criteria of test example 1.
(§6) A: barnyard grass, B: bulrush, C: oval-leafed pondweed, D: crabgrass, E: green foxtail, F: barnyard grass, G: wild oat, H: black-grass, I: Italian ryegrass, J: common wind-grass, K: Indian mallow, L: redroot pigweed, M: fig-leafed goosefoot, N: chickweed, O: catchweed, p: birds-eye speedwell, a: transplanted rice, b: directly sown rice, c: corn, d: soybean, e: wheat, f: beet, g: rapeseed
(§7) Further, pesticide dosage (g/ha) indicates the concentration regulated such that treatment was with only the stated number of grams (g), when calculated per hectare (ha).

chickweed [4] = assay: Test Example 4: weedkilling efficacy by foliar treatment; N: chickweed
Method in brief: (§8)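 Seeds are spot-sown into sterilized diluvial soil and covered with about 1.5 cm of soil. After 14 days' greenhouse growth at 25 to 30° C, plants are sprayed on stems and leaves with diluted emulsion at the stated g/ha rate, then scored at 3 weeks.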

wheat [5] = assay: Test Example 3: soil treatment, effect on crop; e: wheat
Method in brief: as §1

soybean [6] = assay: Test Example 3: soil treatment, effect on crop; d: soybean
Method in brief: as §1

barnyard grass [7] = assay: Test Example 2: weedkilling efficacy, growth period weed treatment in the submerged state; A: barnyard grass
Method in brief: (§9)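 Barnyard grass, bulrush and oval-leafed pondweed sown in alluvial soil under 4 cm flooding, greenhouse 25 to 30° C. At 1-2 leaf stage, water-diluted emulsion applied to the water surface at stated g/ha dosages; effects scored 3 weeks later.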

Indian mallow [8] = assay: Test Example 3: weedkilling efficacy through soil treatment; K: Indian mallow
Method in brief: as §1

Indian mallow [9] = assay: Test Example 4: weedkilling efficacy by foliar treatment; K: Indian mallow
Method in brief: as §8

redroot pigweed [10] = assay: Test Example 4: weedkilling efficacy by foliar treatment; L: redroot pigweed
Method in brief: as §8

birds-eye speedwell = assay: Test Example 3: weedkilling efficacy through soil treatment; p: birds-eye speedwell
Method in brief: as §1

redroot pigweed [11] = assay: Test Example 3: weedkilling efficacy through soil treatment; L: redroot pigweed
Method in brief: as §1

corn [12] = assay: Test Example 4: foliar treatment, effect on crop; c: corn
Method in brief: as §8

bulrush [13] = assay: Test Example 1: weedkilling efficacy, preemergent weed treatment in the submerged state; B: bulrush
Method in brief: as §2

crabgrass [14] = assay: Test Example 4: weedkilling efficacy by foliar treatment; D: crabgrass
Method in brief: as §8

beet [15] = assay: Test Example 4: foliar treatment, effect on crop; f: beet
Method in brief: as §8

bulrush [16] = assay: Test Example 2: weedkilling efficacy, growth period weed treatment in the submerged state; B: bulrush
Method in brief: as §9

crabgrass [17] = assay: Test Example 3: weedkilling efficacy through soil treatment; D: crabgrass
Method in brief: as §1

wild oat [18] = assay: Test Example 3: weedkilling efficacy through soil treatment; G: wild oat
Method in brief: as §1

barnyard grass [19] = assay: Test Example 3: weedkilling efficacy through soil treatment; F: barnyard grass
Method in brief: as §1

Italian ryegrass [20] = assay: Test Example 4: weedkilling efficacy by foliar treatment; I: Italian ryegrass
Method in brief: as §8

rapeseed [21] = assay: Test Example 3: soil treatment, effect on crop; g: rapeseed
Method in brief: as §1

catchweed = assay: Test Example 4: weedkilling efficacy by foliar treatment; O: catchweed
Method in brief: as §8

fig-leafed goosefoot [22] = assay: Test Example 4: weedkilling efficacy by foliar treatment; M: fig-leafed goosefoot
Method in brief: as §8

black-grass [23] = assay: Test Example 3: weedkilling efficacy through soil treatment; H: black-grass
Method in brief: as §1

green foxtail [24] = assay: Test Example 4: weedkilling efficacy by foliar treatment; E: green foxtail
Method in brief: as §8

wild oat [25] = assay: Test Example 4: weedkilling efficacy by foliar treatment; G: wild oat
Method in brief: as §8

corn [26] = assay: Test Example 3: soil treatment, effect on crop; c: corn
Method in brief: as §1

rapeseed [27] = assay: Test Example 4: foliar treatment, effect on crop; g: rapeseed
Method: as §3, §4, §5, §6, §7

directly sown rice [28] = assay: Test Example 3: soil treatment, effect on crop; b: directly sown rice
Method in brief: as §1

barnyard grass [29] = assay: Test Example 1: weedkilling efficacy, preemergent weed treatment in the submerged state; A: barnyard grass
Method in brief: as §2

transplanted rice = assay: Test Example 1: preemergent weed treatment in the submerged state, effect on crop; a: transplanted rice
Method in brief: as §2

oval-leafed pondweed [30] = assay: Test Example 2: weedkilling efficacy, growth period weed treatment in the submerged state; C: oval-leafed pondweed
Method in brief: as §9

beet [31] = assay: Test Example 3: soil treatment, effect on crop; f: beet
Method in brief: as §1

fig-leafed goosefoot [32] = assay: Test Example 3: weedkilling efficacy through soil treatment; M: fig-leafed goosefoot
Method in brief: as §1

green foxtail [33] = assay: Test Example 3: weedkilling efficacy through soil treatment; E: green foxtail
Method in brief: as §1

Italian ryegrass [34] = assay: Test Example 3: weedkilling efficacy through soil treatment; I: Italian ryegrass
Method in brief: as §1

common wind-grass [35] = assay: Test Example 3: weedkilling efficacy through soil treatment; J: common wind-grass
Method in brief: as §1

soybean [36] = assay: Test Example 4: foliar treatment, effect on crop; d: soybean
Method in brief: as §8

black-grass [37] = assay: Test Example 4: weedkilling efficacy by foliar treatment; H: black-grass
Method in brief: as §8

wheat [38] = assay: Test Example 4: foliar treatment, effect on crop; e: wheat
Method in brief: as §8

common wind-grass [39] = assay: Test Example 4: weedkilling efficacy by foliar treatment; J: common wind-grass
Method: as §3, §4, §5, §6, §7

directly sown rice [40] = assay: Test Example 4: foliar treatment, effect on crop; b: directly sown rice
Method in brief: as §8

Structure (SMILES): CC1=C(c2cccnc2F)C(=O)N(C(C)(C)C(=O)Nc2cc(C)cc(Cl)n2)CO1 [B-2-15]
- N (chickweed) weedkilling efficacy grade (chickweed [1]): 2 (weed kill ratio 20% or more, less than 40%)
- C (oval-leafed pondweed) weedkilling efficacy grade (oval-leafed pondweed [2]): 5 (weed kill ratio 90% or more, (practically complete withering))
- F (barnyard grass) weedkilling efficacy grade (barnyard grass [3]): 4 (weed kill ratio 70% or more, less than 90%)
- N (chickweed) weedkilling efficacy grade (chickweed [4]): 4 (weed kill ratio 70% or more, less than 90%)
- e (wheat) effect on crop grade (wheat [5]): 0 (weed kill ratio 5% or less (practically no effect))
- d (soybean) effect on crop grade (soybean [6]): 0 (weed kill ratio 5% or less (practically no effect))
- A (barnyard grass) weedkilling efficacy grade (barnyard grass [7]): 4 (weed kill ratio 70% or more, less than 90%)
- K (Indian mallow) weedkilling efficacy grade (Indian mallow [8]): 0 (weed kill ratio 5% or less (practically no effect))
- K (Indian mallow) weedkilling efficacy grade (Indian mallow [9]): 1 (weed kill ratio 5% or more, less than 20%)
- L (redroot pigweed) weedkilling efficacy grade (redroot pigweed [10]): 2 (weed kill ratio 20% or more, less than 40%)
- P (birds-eye speedwell) weedkilling efficacy grade (birds-eye speedwell): 4 (weed kill ratio 70% or more, less than 90%)
- L (redroot pigweed) weedkilling efficacy grade (redroot pigweed [11]): 0 (weed kill ratio 5% or less (practically no effect))
- c (corn) effect on crop grade (corn [12]): 4 (weed kill ratio 70% or more, less than 90%)
- B (bulrush) weedkilling efficacy grade (bulrush [13]): 5 (weed kill ratio 90% or more, (practically complete withering))
- D (crabgrass) weedkilling efficacy grade (crabgrass [14]): 4 (weed kill ratio 70% or more, less than 90%)
- f (beet) effect on crop grade (beet [15]): 3 (weed kill ratio 40% or more, less than 70%)
- B (bulrush) weedkilling efficacy grade (bulrush [16]): 5 (weed kill ratio 90% or more, (practically complete withering))
- D (crabgrass) weedkilling efficacy grade (crabgrass [17]): 5 (weed kill ratio 90% or more, (practically complete withering))
- G (wild oat) weedkilling efficacy grade (wild oat [18]): 3 (weed kill ratio 40% or more, less than 70%)
- F (barnyard grass) weedkilling efficacy grade (barnyard grass [19]): 5 (weed kill ratio 90% or more, (practically complete withering))
- I (Italian ryegrass) weedkilling efficacy grade (Italian ryegrass [20]): 5 (weed kill ratio 90% or more, (practically complete withering))
- g (rapeseed) effect on crop grade (rapeseed [21]): 2 (weed kill ratio 20% or more, less than 40%)
- O (catchweed) weedkilling efficacy grade (catchweed): 3 (weed kill ratio 40% or more, less than 70%)
- M (fig-leafed goosefoot) weedkilling efficacy grade (fig-leafed goosefoot [22]): 4 (weed kill ratio 70% or more, less than 90%)
- H (black-grass) weedkilling efficacy grade (black-grass [23]): 5 (weed kill ratio 90% or more, (practically complete withering))
- E (green foxtail) weedkilling efficacy grade (green foxtail [24]): 5 (weed kill ratio 90% or more, (practically complete withering))
- G (wild oat) weedkilling efficacy grade (wild oat [25]): 3 (weed kill ratio 40% or more, less than 70%)
- c (corn) effect on crop grade (corn [26]): 0 (weed kill ratio 5% or less (practically no effect))
- g (rapeseed) effect on crop grade (rapeseed [27]): 4 (weed kill ratio 70% or more, less than 90%)
- b (directly sown rice) effect on crop grade (directly sown rice [28]): 5 (weed kill ratio 90% or more, (practically complete withering))
- A (barnyard grass) weedkilling efficacy grade (barnyard grass [29]): 5 (weed kill ratio 90% or more, (practically complete withering))
- a (transplanted rice) effect on crop grade (transplanted rice): 3 (weed kill ratio 40% or more, less than 70%)
- C (oval-leafed pondweed) weedkilling efficacy grade (oval-leafed pondweed [30]): 5 (weed kill ratio 90% or more, (practically complete withering))
- f (beet) effect on crop grade (beet [31]): 2 (weed kill ratio 20% or more, less than 40%)
- M (fig-leafed goosefoot) weedkilling efficacy grade (fig-leafed goosefoot [32]): 3 (weed kill ratio 40% or more, less than 70%)
- E (green foxtail) weedkilling efficacy grade (green foxtail [33]): 5 (weed kill ratio 90% or more, (practically complete withering))
- I (Italian ryegrass) weedkilling efficacy grade (Italian ryegrass [34]): 5 (weed kill ratio 90% or more, (practically complete withering))
- J (common wind-grass) weedkilling efficacy grade (common wind-grass [35]): 5 (weed kill ratio 90% or more, (practically complete withering))
- d (soybean) effect on crop grade (soybean [36]): 1 (weed kill ratio 5% or more, less than 20%)
- H (black-grass) weedkilling efficacy grade (black-grass [37]): 4 (weed kill ratio 70% or more, less than 90%)
- e (wheat) effect on crop grade (wheat [38]): 2 (weed kill ratio 20% or more, less than 40%)
- J (common wind-grass) weedkilling efficacy grade (common wind-grass [39]): 5 (weed kill ratio 90% or more, (practically complete withering))
- b (directly sown rice) effect on crop grade (directly sown rice [40]): 5 (weed kill ratio 90% or more, (practically complete withering))
